The subject of one series is corneal epithelium. The experiment in a line: protective effect on the corneal epithelium against UV A/B radiation in rabbits (morphology, TUNEL). It counts as in vivo, rabbit. As to conditions: for damage to the DNA (TUNEL) / corneal tissue morphology (hematoxylin-eosin): treated left eye after UV exposure; for corneal tissue morphology (hematoxylin-eosin): compared with untreated animals; for EYE LEFT Score (arbitrary scale): treated left eye, instilled every 2 hours for eight hours, then 2091 seconds of UV 290/360 nm, Negative Control = 10, UV-exposed untreated right eye = 1. The protocol: In all the groups treated (groups 1-4) the right eye acted as a positive control. The following compositions were instilled respectively into the left eye every 2 hours for eight hours:
Then the animals were exposed for 2091 seconds to UV radiation using a xenon-mercury lamp, 5000 W, 290/360 nm, (Photochem. Photobiol. 1989; 49:175-180) after which the animals were killed and the eyeballs removed and placed in a fixative (4% paraformaldehyde). The cornea was then removed, included in paraffin and then evaluated for its morphological aspects and the cellular degeneration. The morphology was examined by means of hematoxylin-eosin staining whereas the cellular parameters were examined with vital exclusion stains and the TUNEL technique (analysis of DNA fragmentation, by means of terminal transferase, as a consequence of cellular stress) (Arch. Ophthalmol. 1987; 115:1031-1035).

Series [1] has as its system functional retinal status. The experiment in a line: functional retinal status (FERG, mfERG) in subjects with age-related maculopathy, 6 months of eye drops. It counts as in vivo, human. The note with it: for amplitudes found with the FERG / mfERG: after 6 months treatment vs before; for SCORE AFTER 6 MONTHS OF TREATMENT (ARBITRARY SCALE): three times a day for 6 months, 0 = no variation respect to time zero, −10 = worsening of the symptoms. The procedure: In order to evaluate the protective effect of the eye drops being examined on the internal structures of the eye in subjects suffering from age-related maculopathy, the following experimental procedure was carried out. 24 Subjects between 49 and 74 years of age, irrespective of gender, received for 6 months the eye drops of Example 1 (complete composition) three times a day. Subjects were subdivided into 4 equal groups and treated as reported in the following: The functional retinal status of the patients was evaluated using the focal electroretinogram (FERG) and the multifocal electroretinogram (mfERG) methods, before and after 6 months treatment. These two methods are useful for evaluating the electrical activity of the 30° retinal centres (Invest. Ophthalmol. Vis. Sci., 1986; 27: 1123-1130; Eye, 2005; 19:431-441).

The nature of series [2]: solubility of 3-HKG in water. It counts as physicochemical. As to conditions: amount of 0.1 mg/mL (as in WO2008/077712).

SMILES strings stand for the structures.

`C[N+](C)(C)C[C@H](O)CC(=O)[O-]` [Group 2, L-carnitine]: in the series on corneal epithelium, the “damage to the DNA (TUNEL)” value is reported as “no damage to the DNA was seen”, the “corneal tissue morphology (hematoxylin-eosin)” value is “tissue appeared damaged” and the “EYE LEFT Score (arbitrary scale)” value turned out to be 3 arbitrary scale. For the same compound, in series [1], the “amplitudes found with the FERG” value is recorded as “reduction”, the mfERG entry is listed as “significant worsening” and the “SCORE AFTER 6 MONTHS OF TREATMENT (ARBITRARY SCALE)” value is listed as −6 arbitrary scale.
In the case of `Nc1c(O[C@@H]2O[C@H](CO)[C@@H](O)[C@H](O)[C@H]2O)cccc1C(=O)CC(N)C(=O)O` (mixture of isomers) [Group 3, 3-Hydroxykynurenine O-β-DL-glucoside], the solubility in water entry in series [2] is “not (completely) soluble in water”. In addition, in the series with corneal epithelium, the “damage to the DNA (TUNEL)” value is recorded as “no damage to the DNA was seen”, the “corneal tissue morphology (hematoxylin-eosin)” value was “tissue appeared damaged although this was not very apparent” and the “EYE LEFT Score (arbitrary scale)” value is recorded as 4 arbitrary scale. Moreover, in series [1], the “amplitudes found with the FERG” value is listed as “substantial stability”, the mfERG entry is listed as “significant worsening” and the “SCORE AFTER 6 MONTHS OF TREATMENT (ARBITRARY SCALE)” value is −4 arbitrary scale.

(Values after patent publication US20130045940A1, “COMPOSITION COMPRISING AS ACTIVE INGREDIENT L-CARNITINE IN COMBINATION WITH A SOLAR FILTER, FOR THE PREVENTION AND/OR TREATMENT OF PATHOLOGIES OF THE EYE DUE TO ULTRAVIOLET RADIATION” (SIGMA-TAU INDUSTRIE FARMACEUTICHE RIUNITE S.P.A., priority 2010, published 2013).)
